# Several values for one entry are separate records, joined by “and”; a condition that tells them apart may be missing. Equal values may be shown once. Read-outs that look alike come from different tables or passages of the source.
# Columns and labels:
# [1] = test system: GABA-T; assay: GABA-T activity in mouse brain after a single i.p. or oral dose; format: in vivo, mice; conditions: for GABA-T Activity (calculated as percent inhibition): 6 h
# Procedure: (§1) Male albino CD1 mice each weighing approximately 34 g at commencement of the test are given an i.p. injection of the test compound in aqueous solution daily for seven consecutive days. Half of the animals are killed by decapitation 24 hours after the last dose fo the test compound. The other half of the animals are observed for up to 12 days for toxicity (as indicated by weight loss and deaths). Control animals receive an injecion of the vehicle only.
# (§2) The brains are removed from the dead mice and are divided into two portions by sagittal section. One half is used for the measurement of GABA-T activity while the other is used for measuring GABA content. The GABA-T activity is measured using known methods as described by M. Jung et al., J.Neurochem., 28, 717 (1977) and 29, 797 (1977). GABA content is measured by perchloric acid or trichloroacetic acid extracts using an amino acid analyzer equiped with a fluorescence detector.
# A. The procedure of Example 3 is repeated using a single i.p. dose of the test compound and killing the mice 6 hours after the i.p. injection.
# (§3) B. The procedure of Part A is repeated using both oral and i.p. doses of (R,S)-allenyl GABA.
# [2] = test system: GABA levels in the brain; assay: GABA level in mouse brain after a single i.p. or oral dose; format: in vivo, mice; conditions: for elevation of GABA levels in the CNS: administered orally or parenterally; for GABA Level (calculated as percent of control): 6 h; for effectiveness by oral versus i.p. route: oral vs i.p.
# Procedure: […] […] The other half of the animals are observed for up to 12 days for toxicity (as indicated by weight loss and deaths). Control animals receive an injecion of the vehicle only.
# as §2, with “The GABA-T activity is measured using known methods as described by M. Jung et al., J.Neurochem., 28, 717 (1977) and 29, 797 (1977).” left out
# as §3
# [3] = test system: seizures and death induced by mercaptopropionic acid; assay: Protection of mice against seizures and death induced by mercaptopropionic acid; format: in vivo; conditions: for Number of Animals having seizures / Number of Dead animals: 6 h before mercaptopropionic acid 53 mg/kg i.p.
# Description: Mice (3.5) were given a single i.p. injection of the test compound. […] The results of the testing are set forth below
# [4] = Toxicity (lethality) after i.p. or oral administration to mice
# Procedure: A. The toxicity of (S)-allenyl GABA and (R,S)-allenyl GABA was determined after i.p. administration to male mice. The mice were observed up to eight days after injection.
# B. The toxicity of (S)-allenyl GABA ("S") and (R,S)-allenyl GABA ("R,S") was determined as in Part A after both oral and i.p. administration.
# [5] = test system: GABA-T; assay: GABA-T activity in mouse brain after seven daily i.p. doses; format: in vivo, mice (male albino CD1); conditions: 24 h after last dose
# Procedure: as §1, §2
# [6] = test system: GABA levels in the brain; assay: GABA content of mouse brain after seven daily i.p. doses; format: in vivo, mice (male albino CD1); conditions: 24 h after last dose
# Procedure: as §1, §2
# [7] = test system: GABA-T; conditions: known compounds, literature; cited from earlier work
# [8] = test system: brain levels of GABA; conditions: known compounds, literature; cited from earlier work
# [9] = test system: GABA-T; assay: Biochemical tests for irreversible inhibition of GABA-T; conditions: biochemical / biological tests
# [10] = i.p., 0.77 mM/kg (135.9 mg/kg), single dose, Table 3
# [11] = i.p., 1.94 mM/kg (342.4 mg/kg), single dose, Table 3
# [12] = i.p., 3.87 mM/kg (683.1 mg/kg), single dose, Table 3
# [13] = oral, 0.77 mM/kg (135.9 mg/kg), single dose, Table 3
# [14] = oral, 1.94 mM/kg (342.4 mg/kg), single dose, Table 3
# [15] = oral, 3.87 mM/kg (683.1 mg/kg), single dose, Table 3
# [16] = single i.p. dose 1.55 mM/kg (273.5 mg/kg), Table 2
# [17] = single i.p. dose 3.10 mM/kg (547.2 mg/kg), Table 2
# [18] = single i.p. dose 6.2 mM/kg (1094.3 mg/kg), Table 2
# [19] = mercaptopropionic acid model, mice
# [20] = 100 mg/kg i.p. daily for 7 days
# [21] = single i.p. dose 0.77 mM/kg (135.9 mg/kg), Table 2
smiles,measurement,setting,value
"C=C=CC(N)CCC(=O)O (racemic) [(R,S)-allenyl GABA, (R,S)-4-amino-hepta-5,6-dienoic acid]",GABA-T Activity (calculated as percent inhibition),[1]; [10],64 percent inhibition
same,GABA-T Activity (calculated as percent inhibition),[1]; [11],84 percent inhibition
same,GABA-T Activity (calculated as percent inhibition),[1]; [12],88 percent inhibition
same,irreversible inhibition of GABA-T in vivo,[1],produce irreversible inhibition of GABA-T
same,GABA-T Activity (calculated as percent inhibition),[1]; [13],69 percent inhibition
same,GABA-T Activity (calculated as percent inhibition),[1]; [14],81 percent inhibition
same,GABA-T Activity (calculated as percent inhibition),[1]; [15],86 percent inhibition
same,GABA-T Activity (calculated as percent inhibition),[1]; [16],76 percent inhibition
same,GABA-T Activity (calculated as percent inhibition),[1]; [17],89 percent inhibition
same,GABA-T Activity (calculated as percent inhibition),[1]; [18],96 percent inhibition
same,elevation of GABA levels in the CNS,[2],can elevate GABA levels significantly in the CNS
same,GABA Level (calculated as percent of control),[2]; [10],310% of control
same,GABA Level (calculated as percent of control),[2]; [11],490% of control
same,GABA Level (calculated as percent of control),[2]; [12],600% of control
same,effectiveness by oral versus i.p. route,[2]; Table 3,equally effective when given by the oral and i.p. routes of administration
same,GABA Level (calculated as percent of control),[2]; [13],330% of control
same,GABA Level (calculated as percent of control),[2]; [14],434% of control
same,GABA Level (calculated as percent of control),[2]; [15],530% of control
same,GABA Level (calculated as percent of control),[2]; [16],470% of control
same,GABA Level (calculated as percent of control),[2]; [17],530% of control
same,GABA Level (calculated as percent of control),[2]; [18],770% of control
same,Number of Animals having seizures,[3]; 0.39 mMole/kg i.p.,5/5
same,Number of Dead animals,[3]; 0.39 mMole/kg i.p.,3/5
same,Number of Animals having seizures,[3]; 0.77 mMole/kg i.p.,5/5
same,Number of Dead animals,[3]; 0.77 mMole/kg i.p.,2/5
same,Number of Animals having seizures,[3]; 1.9 mMole/kg i.p.,3/5
same,Number of Dead animals,[3]; 1.9 mMole/kg i.p.,0/5
same,Number of Animals having seizures,[3]; 3.9 mMole/kg i.p.,3/5
same,Number of Dead animals,[3]; 3.9 mMole/kg i.p.,0/5
same,effect on number of dead animals,[3]; [19],significantly reduces the number of dead animals
same,protection against seizures,[3]; [19],does not protect totally against seizures
same,selectivity ratio,"[4]; mouse, in vivo, ip",4 to 5
same,No. of dead animals,"[4]; mouse, in vivo, ip, 500 mg/kg",0/5
same,No. of dead animals Day 4,"[4]; mouse, in vivo, ip, 500 mg/kg",0/5
same,No. of dead animals,"[4]; mouse, in vivo, ip, 750 mg/kg",3/5
same,No. of dead animals Day 4,"[4]; mouse, in vivo, ip, 750 mg/kg",3/5
same,No. of dead animals,"[4]; mouse, in vivo, ip, 1000 mg/kg",2/5 and 4/5 and 5/5
same,No. of dead animals Day 4,"[4]; mouse, in vivo, ip, 1000 mg/kg",5/5
same,No. of dead animals,"[4]; mouse, in vivo, ip, 1500 mg/kg",5/5
same,No. of dead animals Day 4,"[4]; mouse, in vivo, ip, 1500 mg/kg",5/5
same,No. of dead animals Day 4,"[4]; mouse, in vivo, po, 500 mg/kg",0/5
same,No. of dead animals Day 4,"[4]; mouse, in vivo, po, 750 mg/kg",0/5
same,No. of dead animals Day 4,"[4]; mouse, in vivo, po, 1000 mg/kg",0/5
same,No. of dead animals Day 4,"[4]; mouse, in vivo, po, 1500 mg/kg",0/5
same,toxicity by oral administration,[4]; oral,did not show toxicity by the oral route up to a dose of 1500 mg/kg
same,GABA-T Activity (calculated as percent inhibition),[5]; 50 mg/kg i.p. daily for 7 days,55 percent inhibition
same,GABA-T Activity (calculated as percent inhibition),[5]; [20],74 percent inhibition
same,GABA Level (calculated as percent of control),[6]; 50 mg/kg i.p. daily for 7 days,130% of control
same,GABA Level (calculated as percent of control),[6]; [20],180% of control
"C#CC(N)CCCN (centres unmarked) [1-acetylene-1,4-butanediamine]",irreversible inhibition of GABA-T,[7],irreversible inhibitors of GABA-T
same,elevation of brain levels of GABA,[8],elevate brain levels of GABA
"C=CC(N)CCC(=O)O (centres unmarked) [4-aminohex-5-enoic acid (""vinyl GABA""), 4-aminohex-5-enoic acid]",irreversible inhibition of GABA-T,[7],irreversible inhibitors of GABA-T
same,elevation of brain levels of GABA,[8],elevate brain levels of GABA
C#CC(N)CCC(=O)O (centres unmarked) [4-aminohex-5-ynoic acid],irreversible inhibition of GABA-T,[7],irreversible inhibitors of GABA-T
same,elevation of brain levels of GABA,[8],elevate brain levels of GABA
C=C=C[C@H](N)CCC(=O)O [(R)-allenyl GABA],irreversible inhibition of GABA-T,[9],not an irreversible inhibitor of GABA-T
same,irreversible inhibition of GABA-T,[9]; listed as (R)(-)-isomer,not active
"C=C=C[C@@H](N)CCC(=O)O [(S)-allenyl GABA, (S)-4-amino-hepta-5,6-dienoic acid]",irreversible inhibition of GABA-T in vivo,[1],produce irreversible inhibition of GABA-T
same,GABA-T Activity (calculated as percent inhibition),[1]; [21],79 percent inhibition
same,GABA-T Activity (calculated as percent inhibition),[1]; [16],92 percent inhibition
same,GABA-T Activity (calculated as percent inhibition),[1]; [17],96 percent inhibition
same,relative potency for the elevation of GABA levels,"[2]; (S) versus (R,S), single i.p. dose, Table 2","twice the potency of (R,S)-allenyl GABA"
same,elevation of GABA levels in the CNS,[2],can elevate GABA levels significantly in the CNS
same,effectiveness by oral versus i.p. route,[2]; Table 3,equally effective when given by the oral and i.p. routes of administration
same,GABA Level (calculated as percent of control),[2]; [21],540% of control
same,GABA Level (calculated as percent of control),[2]; [16],670% of control
same,GABA Level (calculated as percent of control),[2]; [17],730% of control
same,irreversible inhibition of GABA-T,[9],irreversible inhibitor of GABA-T
same,No. of dead animals,"[4]; i.p., 250 mg/kg, Day 1",0/5
same,No. of dead animals,"[4]; i.p., 250 mg/kg, Day 2",0/5
same,No. of dead animals,"[4]; i.p., 250 mg/kg, Day 3",0/5
same,No. of dead animals,"[4]; i.p., 250 mg/kg, Day 4",0/5
same,No. of dead animals,"[4]; i.p., 250 mg/kg, Day 8",0/5
same,No. of dead animals,"[4]; i.p., 375 mg/kg, Day 1",0/5
same,No. of dead animals,"[4]; i.p., 375 mg/kg, Day 2",0/5
same,No. of dead animals,"[4]; i.p., 375 mg/kg, Day 3",0/5
same,No. of dead animals,"[4]; i.p., 375 mg/kg, Day 4",0/5
same,No. of dead animals,"[4]; i.p., 375 mg/kg, Day 8",0/5
same,No. of dead animals,"[4]; i.p., 500 mg/kg, Day 1",0/5
same,No. of dead animals,"[4]; i.p., 500 mg/kg, Day 2",0/5
same,No. of dead animals,"[4]; i.p., 500 mg/kg, Day 3",0/5
same,No. of dead animals,"[4]; i.p., 500 mg/kg, Day 4",0/5
same,No. of dead animals,"[4]; i.p., 500 mg/kg, Day 8",0/5
same,No. of dead animals,"[4]; i.p., 750 mg/kg, Day 1",0/5
same,No. of dead animals,"[4]; i.p., 750 mg/kg, Day 2",0/5
same,No. of dead animals,"[4]; i.p., 750 mg/kg, Day 3",0/5
same,No. of dead animals,"[4]; i.p., 750 mg/kg, Day 4",0/5
same,No. of dead animals,"[4]; i.p., 750 mg/kg, Day 8",0/5
same,toxicity after i.p. administration,"[4]; i.p., very large doses corresponding to maximal biological effects",non-toxic after i.p. administration of very large doses
same,toxicity by oral administration,[4]; oral,non-toxic by oral administration
same,No. of dead animals Day 4,"[4]; oral, 500 mg/kg, Day 4, Example 5 Part B",0/5
same,No. of dead animals Day 4,"[4]; oral, 750 mg/kg, Day 4, Example 5 Part B",1/5
